Laboratory results: patent publication US20230123140A1, “DOSE TREATMENTS OF TAUOPATHIES” (AC Immune SA, priority 2020, published 2023)

How the values were obtained:
[1] = system: healthy subjects; assay: First-in-human study, single ascending dose (SAD) part: safety and tolerability; type: in vivo; conditions: for number of AEs: healthy subjects
Text: A First-In-Human, Randomized, Placebo-Controlled, Double-Blind, SAD/MAD Study to Assess the Safety, Tolerability, Pharmacokinetics, and Pharmacodynamics of ACI-3024
The objective of the study is to assess the safety, tolerability, pharmacokinetics (PK), and pharmacodynamics (PD) of single ascending doses (SAD) and multiple ascending doses (MAD) of ACI-3024 in a first-in-human, randomized, placebo-controlled, double-blind, sequential SAD/MAD study with open-label food effect and pharmacodynamic assessment arms. The study comprises different parts to be conducted in Healthy Volunteers: • 1) one Single Ascending Dose (SAD) part in which several cohorts are being investigated with single ascending doses of ACI-3024. The food effect is also explored in this part. • 2) one Multiple Ascending Dose (MAD) part in which several cohorts are being investigated with multiple ascending doses of ACI-3024. Each study part is assessing the safety, tolerability, pharmacokinetics and pharmacodynamics of ACI-3024.
This part comprised a single dose, sequential group design. Overall, 40 healthy non-elderly male subjects were enrolled in 5 cohorts (Cohorts S1 to S5), with each cohort consisting of 8 subjects.
No Japanese subjects were enrolled in Cohort S1. For Cohorts S2 through S5, 4 Japanese subjects and 4 non Japanese subjects were enrolled.
In each of Cohorts S1 to S5, 6 subjects (including 3 Japanese subjects in Cohorts S2 through S5) received ACI-3024 and 2 subjects (including 1 Japanese subject in Cohorts S2 through S5) received placebo. All doses were administered in the fasting state in accordance with a randomization schedule on the morning of Day 1, except for subjects in the food-effect cohort (Cohort S4), who were dosed 30 minutes after starting a high-fat breakfast in Treatment Period 2 only. Each subject received only a single dose of ACI-3024 or placebo during the study, except for subjects in the food effect cohort, who received a single dose of ACI-3024 or placebo in the fasting state followed by a single dose of ACI-3024 in the fed state. Thus, subjects in Cohort S4 received either 2 identical doses of ACI-3024 (6 subjects) or 1 dose of placebo and 1 dose of ACI-3024 (2 subjects). Six subjects of Cohort S4 received 750 mg dose of ACI-3024 and 2 subjects received placebo. After a period of wash-up all 8 subjects of Cohort S4 received a fat-breakfast and a 750 mg dose of ACI-3024.
The total duration of study participation for each subject (from Screening through Follow-up visit) was approximately 37 days, except for subjects in the food-effect cohort (Cohort S4), for whom the total duration was up to approximately 44 days.

[2] = Toxicokinetics in the 4-week mouse toxicity study; type: in vivo; conditions: for AUC(0-t) / Cmax / Tmax: plasma
Method: This study was conducted to evaluate the potential toxicity of ACI-3024 when given daily by oral gavage to CD1 mice for 4 weeks, followed by a 2-week recovery period. Doses of 100, 300 and 1000 mg/kg were administered by p.o. to 10 animals/sex/group daily. The control animals were administered vehicle. The dose volume was 10 mL/kg for all groups.

[3] = in vivo; design: species or system mini-pig; conditions: both sexes, Gottingen, minipig, po
Method: (§1) This study was conducted to evaluate the potential toxicity of ACI-3024 in a non-rodent species when given daily to Gottingen mini-pig for 4 weeks, followed by a 2-week recovery period.
(§2) Doses tested, 50, 150 and 450 mg/kg were given by p.o. to 3 animals/sex/group daily. The control animals were administered vehicle. The dose volume was 5 mL/kg for all groups.
(§3) Clinical signs, body weights, food consumption, electrocardiography, ophthalmology and clinical pathology were evaluated. For each sex/group, a complete necropsy was conducted on 3 animals at the end of the dosing period and on 2 (only control and high dose groups) surviving animals at end of the recovery period.

[4] = system: Gottingen mini-pig; assay: in vivo; conditions: minipig
Method: as §1, §2, §3

[5] = system: Central Nervous System function; assay: Central nervous system evaluation in mice (functional observation battery); type: in vivo, mouse; conditions: single oral administration 100, 300 or 750 mg/kg, female CD1 mice
Method: This study was conducted to evaluate the potential modifications of central nervous system (CNS) activity by ACI-3024 when given as single dose to CD1 mice.
Doses of 100, 300 and 750 mg/kg were administered by oral gavage to 8 females/group. The control animals were administered vehicle. The dose volume was 10 mL/kg for all groups. Approximately 2, 4, 6 and 24 hours after the treatment, each mouse was subjected to a functional observation battery in order to investigate possible treatment-induced effects on the CNS or in any of its domains: neurologic, autonomic and behavioral.

[6] = system: respiratory function; assay: Respiratory function evaluation in mice (whole body plethysmography); type: in vivo, mouse; conditions: single oral administration 100, 300 and 750 mg/kg, conscious female mice
Method: This study was conducted to evaluate the potential modifications of respiratory function by ACI-3024 when given as single dose to CD1 mice.
Doses of 100, 300 and 750 mg/kg were administered by oral gavage to 8 females/group. The control animals were administered vehicle. The dose volume was 10 mL/kg for all groups. Animals underwent a whole body plethysmography carried out starting 30 minutes before dosing up to 5 hours after; moreover, a subsequent 1-hour registration was conducted 24 hours post dose.

[7] = both sexes, mouse, Day 28, 300 mg/kg oral, average M/F CD-1 mice
[8] = mouse, Day 28, 300 mg/kg oral, female CD-1 mice
[9] = mouse, Day 28, 300 mg/kg oral, male CD-1 mice

Q: Which “SAEs or AEs leading to discontinuation” value ([1]; SAD cohorts, 25 to 1500 mg) does the source give for `Fc1ccc2c3c([nH]c2c1)CCN(c1ccc2oc(N4CCOCC4)nc2c1)C3` [ACI-3024] here?
A: no SAEs or AEs leading to discontinuation from the study

Q: What about the “vital signs, ECG values, physical or neurological examinations” value ([1]; SAD cohorts, 25 to 1500 mg) of the same compound?
A: no clinically significant observations

Q: And the “severity of AEs” value ([1]; SAD cohorts, 25 to 1500 mg (all AEs of the part, placebo included))?
A: mild

Q: And the “overall safety and tolerability” value ([1]; SAD study, up to the highest administered dose of 1500 mg)?
A: safe and well tolerated

Q: What about the “number of AEs” value ([1]; single oral dose 25 mg) of the same compound?
A: 2

Q: What about the “number of AEs” value ([1]; single oral dose 100 mg) of the same compound?
A: 0

Q: And the “number of AEs” value ([1]; single oral dose 300 mg)?
A: 3

Q: And the “number of AEs” value ([1]; single oral dose 750 mg (fed and fasted states))?
A: 6

Q: What about the “number of AEs” value ([1]; single oral dose 1500 mg) of the same compound?
A: 2

Q: What about the “dose proportionality of plasma exposure” value ([2]; 100 to 1000 mg/kg) of the same compound?
A: less than dose proportionally

Q: And the AUC(0-t) [2, 7]?
A: 353 µg·h/mL

Q: What about the Cmax [2, 7] of the same compound?
A: 25800 ng/mL

Q: What about the Tmax [2, 7] of the same compound?
A: 4 h

Q: What about the Tmax ([2]; female, CD1, mouse, oral, females, high-dose group (1000 mg/kg), delayed) of the same compound?
A: 24 h

Q: What about the “sex difference in exposure” value ([2]; in general, except 300 mg/kg/day on Day 28) of the same compound?
A: higher exposure was observed in females than in males

Q: And the AUC(0-t) [2, 8]?
A: 320 µg·h/mL

Q: What about the Cmax [2, 8] of the same compound?
A: 23400 ng/mL

Q: And the Tmax [2, 8]?
A: 4 h

Q: What about the AUC(0-t) [2, 9] of the same compound?
A: 386 µg·h/mL

Q: And the Cmax [2, 9]?
A: 28300 ng/mL

Q: And the Tmax [2, 9]?
A: 4 h

Q: And the accumulation ([2]; repeated administrations, Day 1 vs. Day 28)?
A: slight ACI-3024 accumulation

Q: And the NOAEL at 4 weeks [3]?
A: 450 mg/kg

Q: What about the body weight gain [4] of the same compound?
A: minimal test item-related reduction

Q: What about the “effect on Central Nervous System function” value [5] of the same compound?
A: no effect

Q: And the “effect on respiratory parameters” value [6]?
A: did not exert effect
